Measured values as given in ChEMBL document CHEMBL5500423, “More than an Amide Bioisostere: Discovery of 1,2,4-Triazole-containing Pyrazolo[1,5-a]pyrimidine Host CSNK2 Inhibitors for Combatting β-Coronavirus Replication” (J Med Chem, 2024).
pIC50: −log10 of the molar value.

Tests used:
[1] = biological target: Casein kinase II subunit alpha' (Homo sapiens, UniProt P19784); assay: Inhibition of NLuc-fused CSNK2A2 (unknown origin) expressed in HEK293 cells incubated for 2 hrs by NanoBRET assay; type: cell-based
[2] = Kinetic solubility of compound in PBS at pH 7.4 incubated for 24 hrs by HPLC analysis; type: physicochemical; conditions: buffer, pH 7.4, 24 h
[3] = tested on: Murine hepatitis virus; assay: Antiviral activity against Murine hepatitis virus infected in mouse DBT cells preincubated with cells for 1 hrs followed by viral infection and measured after 10 hrs by luminometer; type: functional, organism-based; conditions: Murine coronavirus
[4] = Cytotoxicity against human A549-ACE2 cells assessed as cell viability at 1 uM incubated for 48 hrs by CellTiter-Glo2 assay relative to control; type: toxicity, cell-based; conditions: a549-ace2, 48 h
[5] = Cytotoxicity against human A549-ACE2 cells assessed as cell viability at 0.1 uM incubated for 48 hrs by CellTiter-Glo2 assay relative to control; type: toxicity, cell-based; conditions: a549-ace2, 48 h

Casein kinase II subunit alpha', sequence (P19784 whole entry, the tested form may be a part): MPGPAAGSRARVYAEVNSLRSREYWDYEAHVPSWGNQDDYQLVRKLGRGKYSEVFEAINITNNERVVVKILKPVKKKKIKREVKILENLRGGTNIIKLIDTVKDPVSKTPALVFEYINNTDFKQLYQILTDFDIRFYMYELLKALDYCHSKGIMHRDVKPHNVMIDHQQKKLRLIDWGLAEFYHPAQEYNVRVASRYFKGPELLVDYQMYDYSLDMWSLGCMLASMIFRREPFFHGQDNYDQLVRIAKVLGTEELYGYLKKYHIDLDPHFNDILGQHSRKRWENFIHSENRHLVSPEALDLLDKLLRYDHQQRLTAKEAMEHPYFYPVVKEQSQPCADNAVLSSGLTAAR

Row | SMILES | pIC50 [1] | Kinetic_solubility [2] [µg/mL] | pIC50 [3] | Activity [4] [%] | Activity [5] [%]
1 | N#Cc1cnn2c(NC3CC(F)(F)C3)cc(Nc3cccc(-n4cnnc4)c3)nc12 | 6.40 | – | < 5.00 | – | –
2 | CN(CCO)c1ccc(Nc2cc(NC3CC3)n3ncc(C#N)c3n2)cc1-n1cnnc1 | 6.90 | 38 | 6.70 | 97 | 95
3 | N#Cc1cnn2c(NC3CC3)cc(Nc3cccc(-n4cnnn4)c3)nc12 | 8.30 | – | < 5.00 | – | –
4 | CCN(CC)CCN(C)c1ccc(Nc2cc(NC3CC3)n3ncc(C#N)c3n2)cc1-n1cnnc1 | 7.00 | 60 | 6.10 | 100 | 98
5 | N#Cc1cnn2c(NC3CC3)cc(Nc3ccc(N4CC[C@H](N)C4)c(-n4cnnc4)c3)nc12 | 6.80 | 49 | 6.40 | 85 | –
6 | N#Cc1cnn2c(Nc3cn(CCN4CCCC4)cn3)cc(Nc3cccc(-n4cnnc4)c3)nc12 | 6.70 | 37 | < 5.00 | – | –
7 | N#Cc1cnn2c(NC3CC3)cc(Nc3cccc(-n4cnnc4)c3)nc12 | 8.40 | 0.47 | 7.40 | 85 | 100
8 | N#Cc1cnn2c(NC3CC3)cc(Nc3cccc(C(=O)O)c3)nc12 | < 5.00 | – | < 5.00 | – | –
9 | N#Cc1cnn2c(NC3CC3)cc(Nc3cccc(-n4ncnn4)c3)nc12 | 6.70 | – | < 5.00 | – | –
10 | CNCCn1cnc(Nc2cc(Nc3cccc(-n4cnnc4)c3)nc3c(C#N)cnn23)c1 | 5.80 | 8.4 | < 5.00 | – | –
11 | CS(=N)(=O)Cc1cccc(Nc2cc(NC3CC3)n3ncc(C#N)c3n2)c1 (stereo not given) | – | – | ≤ 5.00 | – | –
12 | N#Cc1cnn2c(NC3CC3)cc(Nc3cc(-n4cnnc4)ccn3)nc12 | 8.00 | 1.2 | 6.80 | 96 | –
13 | N#Cc1cnn2c(NC3CC3)cc(Nc3cccc(-c4ncns4)c3)nc12 | 7.30 | – | < 5.00 | – | –
14 | CNCCn1ccc(Nc2cc(Nc3cccc(-n4cnnc4)c3)nc3c(C#N)cnn23)n1 | 7.10 | 2.1 | < 5.00 | – | –
15 | N#Cc1cnn2c(NC3CC3)cc(Nc3cccc(Cn4cnnc4)c3)nc12 | 5.40 | – | < 5.00 | – | –
16 | N#Cc1cnn2c(Nc3cn(CCN4CCOCC4)cn3)cc(Nc3cccc(-n4cnnc4)c3)nc12 | 5.30 | 4.2 | < 5.00 | – | –
17 | N#Cc1cnn2c(NC3CC3)cc(Nc3cccc(-n4cc[nH]c4=O)c3)nc12 | < 5.00 | – | < 5.00 | – | –

Row | SMILES | pIC50 [1] | Kinetic_solubility [2] [µg/mL] | pIC50 [3] | Activity [4] [%] | Activity [5] [%]
18 | Cn1cc(CNc2cc(Nc3cccc(-n4cnnc4)c3)nc3c(C#N)cnn23)cn1 | < 5.00 | – | < 5.00 | – | –
19 | N#Cc1cnn2c(NC3CC3)cc(Nc3ccnc(-n4cnnc4)c3)nc12 | 8.00 | 0.27 | 7.20 | 98 | 99
20 | N#Cc1cnn2c(NC3CC3)cc(Nc3cccc(-c4ccccn4)c3)nc12 | 5.30 | – | < 5.00 | – | –
21 | CN(C)CCn1cnc(Nc2cc(Nc3cccc(-n4cnnc4)c3)nc3c(C#N)cnn23)c1 | 6.30 | 30 | < 5.00 | – | –
22 | COCCNc1ccc(Nc2cc(NC3CC3)n3ncc(C#N)c3n2)cc1-n1cnnc1 | 6.90 | 0.8 | 6.50 | 99 | 99
23 | N#Cc1cnn2c(NC3COC3)cc(Nc3cccc(-n4cnnc4)c3)nc12 | 6.60 | – | < 5.00 | – | –
24 | C[C@@H](N)CN(C)c1ccc(Nc2cc(NC3CC3)n3ncc(C#N)c3n2)cc1-n1cnnc1 | 6.60 | 62 | 6.30 | 91 | 95
25 | CC(=O)N1CCC(Nc2cc(Nc3cccc(-n4cnnc4)c3)nc3c(C#N)cnn23)CC1 | < 5.00 | – | < 5.00 | – | –
26 | N#Cc1cnn2c(NCC3CCOCC3)cc(Nc3cccc(-n4cnnc4)c3)nc12 | < 5.00 | – | < 5.00 | – | –
27 | N#Cc1cnn2c(NC3CC3)cc(Nc3cccc(-c4cnccn4)c3)nc12 | < 5.00 | – | < 5.00 | – | –
28 | N#Cc1cnn2c(NC3CC3)cc(Nc3cccc(-c4cnn[nH]4)c3)nc12 | 8.00 | – | 7.10 | 85 | 100
29 | CC(C)(C#N)c1cccc(Nc2cc(NC3CC3)n3ncc(C#N)c3n2)c1 | 6.10 | – | < 5.00 | – | –
30 | N#Cc1cnn2c(NCCO)cc(Nc3cccc(-n4cnnc4)c3)nc12 | < 5.00 | – | < 5.00 | – | –
31 | Cn1cnnc1-c1cccc(Nc2cc(NC3CC3)n3ncc(C#N)c3n2)c1 | < 5.00 | – | < 5.00 | – | –
32 | Cc1nccn1-c1cccc(Nc2cc(NC3CC3)n3ncc(C#N)c3n2)c1 | 7.50 | – | < 5.00 | – | –
33 | N#Cc1cnn2c(NC3CCC3)cc(Nc3cccc(-n4cnnc4)c3)nc12 | 8.10 | 0.18 | 7.10 | 93 | –

The next lines start with results.

Row | pIC50 [1] | Kinetic_solubility [2] [µg/mL] | pIC50 [3] | SMILES | Activity [4] [%] | Activity [5] [%]
34 | 7.10 | 25 | 6.20 | CN(CCN1CCOCC1)c1ccc(Nc2cc(NC3CC3)n3ncc(C#N)c3n2)cc1-n1cnnc1 | – | –
35 | < 5.00 | – | 5.30 | N#Cc1cnn2c(NCC3CCOC3)cc(Nc3cccc(-n4cnnc4)c3)nc12 (stereo not given) | – | –
36 | 6.80 | – | 5.80 | CN[C@@H]1CCCN(c2cc(F)c(Nc3cc(NC4CC4)n4ncc(C#N)c4n3)cc2-n2cnnc2)C1 | – | –
37 | 7.40 | – | 6.20 | Cc1nncn1-c1cccc(Nc2cc(NC3CC3)n3ncc(C#N)c3n2)c1 | – | –
38 | 6.20 | – | 5.10 | CCNCCN(C)c1ccc(Nc2cc(NC3CC3)n3ncc(C#N)c3n2)cc1-n1cnnc1 | – | –
39 | 6.60 | 44 | 5.60 | N#Cc1cnn2c(NC3CC3)cc(Nc3ccc(N4CC[C@@H](N)C4)c(-n4cnnc4)c3)nc12 | – | –
40 | 7.20 | 2.6 | 5.60 | CN(CCO)c1cc(F)c(Nc2cc(NC3CC3)n3ncc(C#N)c3n2)cc1-n1cnnc1 | – | –
41 | 6.30 | 39 | 5.80 | CCN(CCN)c1cc(F)c(Nc2cc(NC3CC3)n3ncc(C#N)c3n2)cc1-n1cnnc1 | – | –
42 | 6.60 | 37 | 5.70 | N#Cc1cnn2c(NC3CC3)cc(Nc3cc(-n4cnnc4)c(N4CC[C@H](N)C4)cc3F)nc12 | – | –
43 | 6.90 | 56 | 5.70 | CN[C@H]1CCCN(c2ccc(Nc3cc(NC4CC4)n4ncc(C#N)c4n3)cc2-n2cnnc2)C1 | – | –
44 | 7.10 | 3.1 | 6.10 | Cn1cnc(Nc2cc(Nc3cccc(-n4cnnc4)c3)nc3c(C#N)cnn23)c1 | – | –
45 | < 5.00 | – | 5.60 | N#Cc1cnn2c(NC3CC3)cc(Nc3cccc(-c4nn[nH]n4)c3)nc12 | – | –
46 | 6.40 | – | 5.10 | CC(C)(O)Cc1cccc(Nc2cc(NC3CC3)n3ncc(C#N)c3n2)c1 | – | –
47 | 7.30 | – | 5.00 | CN(CCN1CCCC1)c1ccc(Nc2cc(NC3CC3)n3ncc(C#N)c3n2)cc1-n1cnnc1 | – | –
48 | 6.20 | – | 5.10 | N#Cc1cnn2c(NC3CC3)cc(Nc3cccc(CCO)c3)nc12 | – | –
49 | 6.20 | – | 5.10 | CP(C)(=O)Cc1cccc(Nc2cc(NC3CC3)n3ncc(C#N)c3n2)c1 | – | –

Row | pIC50 [1] | Kinetic_solubility [2] [µg/mL] | pIC50 [3] | SMILES | Activity [4] [%] | Activity [5] [%]
50 | 6.10 | 63 | 5.50 | CN[C@@H]1CCCN(c2ccc(Nc3cc(NC4CC4)n4ncc(C#N)c4n3)cc2-n2cnnc2)C1 | – | –
51 | – | 1.1 | 6.90 | N#Cc1cnn2c(NC3CC3)cc(Nc3ccc(N4CCOCC4)c(-n4cnnc4)c3)nc12 | – | –
52 | 6.20 | – | 5.00 | N#Cc1cnn2c(NC3CC3)cc(Nc3cccc(-c4nnco4)c3)nc12 | – | –
53 | 6.90 | 16 | 6.00 | CNCCN(C)c1ccc(Nc2cc(NC3CC3)n3ncc(C#N)c3n2)cc1-n1cnnc1 | – | –
54 | 6.10 | – | 5.60 | N#Cc1cnn2c(NC3CC3)cc(Nc3cccc(-c4nccs4)c3)nc12 | – | –
55 | 6.80 | 0.2 | 5.30 | CN1CCN(c2ccc(Nc3cc(NC4CC4)n4ncc(C#N)c4n3)cc2-n2cnnc2)CC1 | – | –
56 | 7.40 | – | 6.40 | C[S+]([O-])Cc1cccc(Nc2cc(NC3CC3)n3ncc(C#N)c3n2)c1 (stereo not given) | – | –
57 | – | 2.8 | 6.80 | CC(=O)Nc1cccc(Nc2cc(NC3CC3)n3ncc(C#N)c3n2)c1 | – | –
58 | 7.50 | 21 | 5.30 | CN(C)CCn1ccc(Nc2cc(Nc3cccc(-n4cnnc4)c3)nc3c(C#N)cnn23)n1 | – | –
59 | 7.60 | 35 | 5.80 | N#Cc1cnn2c(Nc3ccn(CCN4CCCC4)n3)cc(Nc3cccc(-n4cnnc4)c3)nc12 | – | –
60 | 6.90 | – | 6.10 | CS(=O)(=O)Nc1cccc(Nc2cc(NC3CC3)n3ncc(C#N)c3n2)c1 | – | –
61 | 6.00 | 41 | 5.60 | CN(CCN)c1cc(F)c(Nc2cc(NC3CC3)n3ncc(C#N)c3n2)cc1-n1cnnc1 | – | –
62 | 7.30 | – | 6.80 | CS(=O)(=O)Cc1cccc(Nc2cc(NC3CC3)n3ncc(C#N)c3n2)c1 | – | –
63 | 6.90 | 47 | 6.20 | N#Cc1cnn2c(NC3CC3)cc(Nc3ccc(N4CCC[C@H](N)C4)c(-n4cnnc4)c3)nc12 | – | –
64 | 6.30 | – | 5.50 | N#Cc1cnn2c(NC3CC3)cc(Nc3cccc(-n4ccnn4)c3)nc12 | – | –
65 | 7.10 | 4 | 6.00 | N#Cc1cnn2c(Nc3ccn(CCN4CCOCC4)n3)cc(Nc3cccc(-n4cnnc4)c3)nc12 | – | –
